Data published in patent US10335417B2, “Thiazideamide derivative and use thereof” (Institute of Pharmacology and Toxicology Academy of …, priority 2015, dated 2019).

Experiments:
MDCK-MDR1 cells = test: in vitro; conditions: MDCK-MDR1
Text: (§1) MDCK-MDR1 cells were monolayer cells which highly express P-gp transporter after transfection of MDCK (Madin-Darby canine kidney epithelial cell) with MDR1 gene. Due to its density and high expression of efflux protein, the monolayer has similarity compared to blood-brain barrier (BBB) structure and now can be used as one of models for evaluating the ability of passing through BBB. In the invention, MDCK-MDR1 cells were used to study the membrane permeability of the compounds according to the invention, and to primarily evaluate its ability of passing through BBB.
(§2) The frozen MDCK-MDR1 cells were quickly thawed in a 37° C. water bath. To the resuscitated cells, DMEM medium containing 10% FBS was added, and the cells were cultured in an incubator at 37° C., 5% CO2, and a relative humidity of 90%. The medium was changed every other day. After fusion of the cells growing for 1-2 days, the cells were digested with 0.25% trypsin-EDTA (0.2%) mixed digestion solution at 37° C., and were sub-cultured at a certain ratio. The cells for use in experiment were those passaged for 40-60 generations.
(§3) When the cell fusion degree reached 80%, the cells were digested and then suspended in complete medium, and seeded to Millicell plate at 1×10^6 cells·mL^−1. The medium was changed every other day, and 1 week later, the medium was changed every day. After culturing for 5 days, the resistance value reached a constant value (>200 Ω·cm^2), and the cells could be used in the transport experiment.
(§4) After washing with 37° C. HBSS twice, the cells were incubated in a 37° C. culture incubator, wherein Rho-123 was added to the upper wells, and HBSS was added to the bottom wells. The incubation was carried out in a constant temperature shaker, and the solutions from the bottom wells were collected at each time point (0 min, 30 min, 90 min, 120 min), and stored at −20° C. for further use. The amount of Rho-123 permeated to the bottom well was determined by fluorospectrophotometer, wherein the emission wavelength was […], and the excitation wavelength was 530 nm.
(§5) The permeability from cavity-surface to basal surface: drug-containing HBSS 0.35 mL was add to Apical (AP), and blank HBSS 1.2 mL was added to Basolateral (BL). The Millicell was placed at 37° C. in a shaker under shaking at 50 r·min^−1, 50 μL sample was collected from the bottom well at 0, 30, 90, 120 min, respectively, and the same volume of blank HBSS was supplemented. 3 wells were set for each concentration, and to the sample, an internal standard solution (50 μL) and ethyl acetate (350 μL) were added precisely. The mixture was mixed homogeneously under shaking, and centrifuged at 12000 rmp for 5 min. The supernatant (300 μL) was volatilized to dryness, and re-dissolved in 50 μL acetonitrile. The 10 μL resultant solution was used for determination.
(§6) The permeability from basal surface to cavity surface: the drug is added to Basolateral (BL), and blank HBSS was added to Apical (AP), and the other steps were the same as those of the experiment for determining the permeability from cavity-surface to basal surface.
(§7) The apparent permeability coefficient (Papp) of a drug reflects the ability of the drug to pass through cell monolayer and the drug absorption rate and extent. It can be calculated in accordance with the following equation: […]
(§8) wherein, Q represents the amount of drug permeated in the t period, A represents cell surface area, and represents the area (0.6 cm^2) of supporting film in this model, and C0 represents an initial concentration. The unit of Papp is expressed as cm·s^−1.
(§9) By measurement using LC/MS, the concentration of each sample was quantitated using its standard curve (50 nM-10000 nM).

[1] = test system: BCAO-LBP mice (incomplete global cerebral ischemia); test: mouse BCAO-LBP model of incomplete global cerebral ischemia: cerebral MDA content and neurological function score; assay type: in vivo, Kunmin mice; conditions: for Neurologic deficit score / MDA content: 30 mg/kg i.g. once/d for 3 d, x ± SEM; for Neurologic deficit score: behaviour within 6 h after ligation, model group 3.92, sham 0.00; for MDA content: whole cerebrum, model group 40.94, sham 33.15
Text: In the Example, Kunmin mice were used as experimental subjects, intragastric (i.g.) administration was used, mouse BCAO-LBP (bilateral carotid artery occlusion with low blood pressure) model was used, and by determining neurological function score and the cerebral malondialdehyde (MDA) content in mice, the compounds were investigated for their protective effects on incomplete global cerebral ischemia in mice when administered prophylactically.
2.1.2 Preparation of a drug for intragastric administration: the compound was prepared to a 1.5 mg/ml solution using 0.7% CMC-Na solution.
28 mice, which had adapted to the laboratory environment for 1 week, were evenly grouped depending on body weight. The mice were intragastrically administered with 0.7% CMC-Na or one of the compounds, once/d, for 3 d. The groups were as followed:
Administration group: 12 mice, intragastrically administered at a dose of 0.2 ml/10 g, i.e., the dose of the compound was 30 mg/kg.
2.3.1 Mouse bilateral carotid artery ligation: 1 h after the last administration, the mice were subjected to orbital bloodletting to reduce blood pressure (which was about 30% of the total blood volume of the mice), and then fixed in supine position on the operating table, and cut in the middle of neck. Carotid artery was subjected to blunt dissection, and 2 lines were used in ligation for each side. The time counting started after the ligation with the third line, the carotid artery was cut off between the two lines, and the incision was sewn up. In the Sham-operated group, the carotid artery was only separated without ligation. After the operation, the mice were unfixed quickly, and the mice were observed and recorded for the behaviors within 6 h (scoring depending on the following table using blind method) and the death time. The brains were taken quickly after the mice died, the cerebellums were removed, and the MDA content in the whole cerebrum was determined by thiobarbituric acid (TBA).
The cerebra of mice were taken and weighed, and were prepared into 15% brain homogenate using N.S. 1.2 ml brain homogenate was placed in a 37° C. water bath for 1 h (shaking once every 10 min) and then taken out. 20% trichloroacetic acid 0.6 ml was added, and the mixture was mixed well, and was on standing for 10 min. After centrifugation at 2000 rpm for 10 min, to 1.2 ml supernatant, 0.67% TBA 0.6 ml was added. The mixture was placed in a boiling water bath for 10 min, and was taken out for cooling, and the OD value at a wavelength of 532 nm was determined.
The experimental data was expressed as x±SEM; SPSS 13.0 statistic software was used. Homogeneity or heterogeneity of variance was determined by one-factor analysis of variance. In the case of homogeneity of variance, LSD test was used; in the case of heterogeneity of variance, Dunnett's T3 test was used. Significant difference among different groups was compared, and P<0.05 indicated statistical significance.

[2] = test system: chick embryo dorsal root ganglion; test: in vitro serum-free culture model of chick embryonic dorsal root ganglion: neurite growth score with NGF; assay type: cell-based; conditions: for Average score (growth of neurites of chick embryo dorsal root ganglion): 48 h, score 0-3, average of five ganglions, control 0.33
Method: The neurotrophic activity of the compounds according to the invention can be embodied in multiple in vitro biological models, such as in vitro serum-free culture model of chick embryonic dorsal root ganglion.
Experimental method: in a sterile environment, chick embryo, which had been incubated for 8 d, had the spinal and bilateral ganglion exposed under anatomical lens. Dorsal root ganglions were picked one by one using sharp forceps, and seeded in culture bottles spread with rat tail collagen, at a density of 5-6 ganglions per bottle, and two bottles for each dose. After attachment culture in a 37° C., 5% CO2 incubator for 1 h, serum-free medium DMEM containing nerve growth factor (NGF) (0.15 ng/mL), and the compound according to the invention were added. In the control group, only the medium and the same dose of NGF were added. After culture in the incubator for 48 h, the growth of neurite around dorsal root ganglion was observed under inverted phase contrast microscope, which was scored depending on the length and density of neurite.
Evaluation criteria: 0: no neurite; 1: rare long neurite; 2: relatively long or dense neurite; 3: long and dense neurite.

in vitro = conditions: dog, MDCK-MDR1
Text: as §1, §2, §3, §4, §5, §6, §7, §8, §9

[3] = compound 100 pM + NGF 0.15 ng/mL

SMILES | Papp (apparent permeability coefficient) (MDCK-MDR1 cells) [×10⁻⁶ cm/s] | Papp at 120 min (in vitro) [×10⁻⁶ cm/s] | Neurologic deficit score [1] | MDA content [1] [nmol/g] | Average score (growth of neurites of chick embryo dorsal root ganglion) ([2]; compound 1 pM + NGF 0.15 ng/mL) | Average score (growth of neurites of chick embryo dorsal root ganglion) [2, 3] | neurologic deficit score decreased compared to the group administered with Compound 5 ([1]; 30 mg/kg i.g., BCAO-LBP mice) | neurologic deficit score decreased compared to the group administered with Compound 6 ([1]; 30 mg/kg i.g., BCAO-LBP mice) [%] | neurotrophic activity increased compared to Compound 6 ([2]; dose 1 pM) [%] | neurotrophic activity increased compared to Compound 6 ([2]; dose 100 pM) [%]
CCC(C)[C@H](NC(=O)[C@@H]1CSCCN1S(=O)(=O)c1ccc(C)cc1)C(=O)OC(C)(C)C (stereo partly drawn) [Compound 9, (2S,3R)-tert-butyl-3-methyl-2((R)-(4-methylphenyl)sulfonyltetrahydro-1,4-thiazin-3-aminoformyl)valerate] |  | 12.4 | 2.37 ± 0.31 | 33.29 ± 1.81 | 1.76 | 2.56 | about 35% |  |  | 
Cc1ccc(S(=O)(=O)N2CCSC[C@H]2C(=O)N[C@H](C(=O)OCc2ccccc2)C(C)C)cc1 [Compound 11, (S)-benzyl-3-methyl-2((R)-(4-methylphenyl)sulfonyltetrahydro-1,4-thiazin-3-aminoformyl)butyrate] |  | 15.6 | 3.66 ± 0.31 | 32.57 ± 0.75 | 1.86 | 2.65 |  |  |  | 
Cc1ccc(S(=O)(=O)N2CCSC[C@H]2C(=O)N[C@@H](Cc2ccccc2)C(=O)OCc2ccccc2)cc1 [Compound 18, (S)-benzyl-3-phenyl-2((R)-(4-methylphenyl)sulfonyltetrahydro-1,4-thiazin-3-aminoformyl)propionate] |  | 28.5 | 2.65 ± 0.31 | 32.66 ± 0.93 | 1.66 | 2.68 | ~27% |  |  | 
Cc1ccc(S(=O)(=O)N2CCSC[C@H]2C(=O)N[C@H](Cc2ccccc2)C(=O)OC(C)(C)C)cc1 [Compound 20, (R)-tert-butyl-3-phenyl-2((R)-(4-methylphenyl)sulfonyltetrahydro-1,4-thiazin-3-aminoformyl)propionate] |  | 18.8 | 3.76 ± 0.31 | 34.90 ± 1.65 | 2.10 | 3.32 |  |  | 25 | 30
CCOC(=O)[C@H](CCc1ccccc1)NC(=O)[C@@H]1CSCCN1S(=O)(=O)c1ccc(C)cc1 [Compound 22, (S)-ethyl-4-phenyl-2((R)-(4-methylphenyl)sulfonyltetrahydro-1,4-thiazin-3-aminoformyl)butyrate] |  | 40.6 | 3.08 ± 0.40 | 33.27 ± 1.61 | 1.88 | 2.78 | about 15% |  |  | 

Further lines, with some results ahead:

Papp (apparent permeability coefficient) (MDCK-MDR1 cells) [×10⁻⁶ cm/s] | Papp at 120 min (in vitro) [×10⁻⁶ cm/s] | SMILES | Neurologic deficit score [1] | MDA content [1] [nmol/g] | Average score (growth of neurites of chick embryo dorsal root ganglion) ([2]; compound 1 pM + NGF 0.15 ng/mL) | Average score (growth of neurites of chick embryo dorsal root ganglion) [2, 3] | neurologic deficit score decreased compared to the group administered with Compound 5 ([1]; 30 mg/kg i.g., BCAO-LBP mice) | neurologic deficit score decreased compared to the group administered with Compound 6 ([1]; 30 mg/kg i.g., BCAO-LBP mice) [%] | neurotrophic activity increased compared to Compound 6 ([2]; dose 1 pM) [%] | neurotrophic activity increased compared to Compound 6 ([2]; dose 100 pM) [%]
8.38 |  | CCOC(=O)[C@H](CC(C)C)NC(=O)[C@@H]1CSCCN1S(=O)(=O)c1ccc(C)cc1 [Compound 5, (3R)-4-[(4-methylbenzenesulfonyl)]-1,4-thiazin-3-carbonyl-L-leucine ethyl ester, reference compound] | 3.62 ± 0.31 | 36.09 ± 1.85 | 0.65 | 1.55 |  |  |  | 
39.5 |  | Cc1ccc(S(=O)(=O)N2CCSC[C@H]2C(=O)N[C@H](CC(C)C)C(=O)OC(C)C)cc1 [Compound 6, (3R)-4-[(4-methylbenzenesulfonyl)]-1,4-thiazin-3-carbonyl-D-leucine isopropyl ester, reference compound] | 2.08 ± 0.40 | 32.87 ± 0.95 | 1.68 | 2.55 |  |  |  | 
 | 18.9 | CCOC(=O)[C@@H](NC(=O)[C@@H]1CSCCN1S(=O)(=O)c1ccc(C)cc1)C(C)C [Compound 13, (S)-ethyl-3-methyl-2((R)-(4-methylphenyl)sulfonyltetrahydro-1,4-thiazin-3-aminoformyl)butyrate] | 2.47 ± 0.40 | 33.90 ± 1.45 | 1.96 | 2.88 | ~32% |  |  | 
 | 40.8 | Cc1ccc(S(=O)(=O)N2CCSC[C@H]2C(=O)N[C@@H](C(=O)OC(C)(C)C)C(C)C)cc1 [Compound 15, (R)-tert-butyl-3-methyl-2((R)-(4-methylphenyl)sulfonyltetrahydro-1,4-thiazin-3-aminoformyl)butyrate] | 1.91 ± 0.28 | 33.77 ± 1.61 | 1.78 | 2.68 |  | ~8 |  | 
